Literature values as cited in patent publication US4474765A, “Biologically active peptides” (Farmitalia Carlo Erba S.p.A., priority 1982, dated 1984).

Tested on: release of ACTH, β-endorphin, growth hormone, TSH and prolactin
Details: literature, Montecucchi et al. 1979

CC[C@H](C)[C@H](NC(=O)[C@@H](NC(=O)[C@H](CC(=O)O)NC(=O)[C@H](CC(C)C)NC(=O)[C@H](CC(C)C)NC(=O)[C@H](CC(C)C)NC(=O)[C@H](CCCNC(=N)N)NC(=O)[C@H](CC(N)=O)NC(=O)[C@H](CC(N)=O)NC(=O)[C@H](C)NC(=O)[C@H](C)NC(=O)[C@H](CCC(N)=O)NC(=O)[C@H](CCC(N)=O)NC(=O)[C@H](CCCCN)NC(=O)[C@H](CCC(=O)O)NC(=O)[C@H](CCCCN)NC(=O)[C@H](CCC(=O)O)NC(=O)[C@H](CCC(N)=O)NC(=O)[C@H](CCCCN)NC(=O)[C@H](CCC(=O)O)NC(=O)[C@@H](NC(=O)[C@H](CCC(=O)O)NC(=O)[C@@H](NC(=O)[C@H](CCSC)NC(=O)[C@H](CCCCN)NC(=O)[C@H](CCCNC(=N)N)NC(=O)[C@H](CC(C)C)NC(=O)[C@H](CC(C)C)NC(=O)[C@H](CCC(=O)O)NC(=O)[C@H](CC(C)C)NC(=O)[C@H](CO)NC(=O)[C@H](CC(C)C)NC(=O)[C@H](CC(=O)O)NC(=O)[C@@H](NC(=O)[C@H](CO)NC(=O)[C@@H](NC(=O)[C@@H]1CCCN1C(=O)[C@@H]1CCCN1C(=O)CNC(=O)[C@@H]1CCC(=O)N1)[C@@H](C)CC)[C@@H](C)CC)[C@@H](C)CC)[C@@H](C)CC)[C@@H](C)O)C(N)=O [sauvagine]
pharmacological activities (hormone release): release of ACTH and β-endorphin, and inhibition of the release of growth hormone, TSH and prolactin
